Data reported in patent US12708620B2, “Prodrugs and medical uses thereof” (priority 2018, dated 2026).
Read-outs that look alike come from different tables or passages of the source.

What was measured:
[1] = system: BT-474; test: resazurin-based potency assay, normoxia vs anoxia; assay type: cell-based, human; conditions: for IC50: Homo sapiens, 4 h exposure then 96 h
Procedure: (§1) The IC50 values were obtained using the resazurin-based potency assay under anoxic (<0.01% O2) and/or normoxic conditions (21% O2). The hypoxia cytotoxicity ratio (HCR) is calculated as the ratio of IC50 value […] (HCR=IC50 normoxia/IC50 anoxia).
(§2) For anoxic condition, the complete medium for each cell line (25 ml in a T25 or 80 ml in a T80) was equilibrated in the anoxic chamber 48 h before use to allow an as large as possible interchange between media and atmosphere, agitating the flask once a day and just before use. The 96-well plates for cell seeding and the 96-well plates for preparation of a mother plate containing the compound to be tested (e.g. Cpd.11 Ms) at appropriate concentrations as well as disposable reagent reservoirs and pipet tips that are required for cell seeding under anoxic conditions were placed in anoxia at least 72 h before use. The mother plate for treatment of the cells under anoxia was prepared with anoxic medium and in anoxia pre-incubated plastics, the mother plate for treatment of the cells in normoxia was prepared with normoxic medium in a standard cell culture hood.
(§3) Cell seeding was performed starting from a cell suspension (70% confluent flasks of cells). Appropriate cell numbers/volumes were used at the pre-determined cell density (typically 100 μl/well) as determined by performing a growth curve experiment were calculated. For anoxic conditions, the appropriate number of cells was transferred to the anoxic chamber and diluted to the appropriate cell concentration in anoxic complete medium. The cells were allowed to adhere for 2 hours in the anoxic chamber at 37° C. In normoxic conditions, usual cell seeding and complete medium protocols were used (in a volume of 100 μl/well in 96-well plates). The cells were allowed to adhere for 2 hours at 37° C. in a regular cell culture CO2 incubator. In both conditions, the remaining empty wells in 96-well plates were filled with 200 μl anoxic or normoxic medium to prevent evaporation.
(§4) Fresh Cpd.11 Ms stock solution was thawed just before the experiment and shielded from the light. A 96-well microtiter plate was filled with 176.4 μl of complete normoxic (RT) or anoxic medium in the first column and 120 μl of complete normoxic or anoxic medium with 2% DMSO for the other columns of wells. 3.6 μl per well of the compound stock solution (Cpd.11, Cpd.11 Ms, Cpd.11c, or Cpd.11d; 150 mM) was added to the first column. The solution of the first column was pipetted up and down and 60 μl was transferred to the second column to perform 1/3 serial dilutions pipetting up and down 3 times between each transfer. This was repeated until the 11th column. No Cpd.11 Ms was added to the 12th column. The plate was prepared no longer than 30 minutes before use and protected from direct light exposure. Two hours after seeding the cells, 100 μl of the mother plate was added to each well and plates remained for 4 h in the anoxic chamber or in cell culture incubator at 37° C. After 4 h, the plate in the anoxic chamber was transferred to normoxia. Visual inspection of all plates (few random wells per plate) under microscope was performed and medium was removed from all plates by aspiration. Cells were washed once with 200 μl PBS (RT) and 200 μl of fresh normoxic complete medium (RT) was added to each well (including all wells without cells). All plates were incubated for 96 hours in normoxia at 37° C. in a standard cell culture incubator.
(§5) For the cell viability assay, the resazurin final working solution was prepared freshly by diluting the resazurin stock solution (0.1 mg/ml) 1/10 in complete medium (RT) of the respective cell lines to obtain a final concentration of 0.01 mg/ml resazurin. After 96 hours incubation in normoxia, a visual inspection of all the plates (few random wells per plate) was performed under the microscope and the medium in each well was removed by aspiration. […]

[2] = system: BxPC-3; test: resazurin-based potency assay, normoxia vs anoxia; assay type: cell-based, human; conditions: for IC50: Homo sapiens, 4 h exposure then 96 h
Procedure: as §1, §2, §3, §4, §5

[3] = system: DMS114; test: resazurin-based potency assay, normoxia vs anoxia; assay type: cell-based, human; conditions: for IC50: Homo sapiens, 4 h exposure then 96 h
Procedure: as §1, §2, §3, §4, §5

[4] = system: HCC1937; test: resazurin-based potency assay, normoxia vs anoxia; assay type: cell-based, human; conditions: for IC50: Homo sapiens, 4 h exposure then 96 h
Procedure: as §1, §2, §3, §4, §5

[5] = system: MDA-MB-231; test: resazurin-based potency assay, normoxia vs anoxia; assay type: cell-based, human; conditions: for IC50: Homo sapiens, 4 h exposure then 96 h
Procedure: as §1, §2, §3, §4, §5

[6] = system: NCI-H1650; test: resazurin-based potency assay, normoxia vs anoxia; assay type: cell-based, human; conditions: for IC50: Homo sapiens, 4 h exposure then 96 h
Procedure: as §1, §2, §3, §4, §5

[7] = system: NCI-H1975; test: resazurin-based potency assay, normoxia vs anoxia; assay type: cell-based, human; conditions: for IC50: Homo sapiens, 4 h exposure then 96 h
Procedure: as §1, §2, §3, §4, §5

[8] = system: PANC-1; test: resazurin-based potency assay, normoxia vs anoxia; assay type: cell-based, human; conditions: for IC50: Homo sapiens, 4 h exposure then 96 h
Procedure: as §1, §2, §3, §4, §5

[9] = water solubility for preparing injection dilution
[10] = anoxia (<0.01% O2), read-out: IC50 Average for Cpd.11Ms ANX (SD)
[11] = normoxia (21% O2), read-out: IC50 Average for Cpd.11Ms NRX (SD)

CCN1CCN(C(=O)c2cc(N(CCBr)CCOS(C)(=O)=O)c(S(C)(=O)=O)cc2[N+](=O)[O-])CC1.CS(=O)(=O)O [Cpd.11 Ms, 4-(5-((2-bromoethyl) (2-((methylsulfonyl)oxy)ethyl)amino)-4-(methylsulfonyl)-2-nitrobenzoyl)-1-ethylpiperazin-1-ium methanesulfonate]
Average of HCR (SD) ([1]; HCR=IC50 normoxia/IC50 anoxia): 102.6 (15.2) | IC50 [1, 10]: 14.8 µM | IC50 [1, 11]: > 1500 µM | Average of HCR (SD) ([2]; HCR=IC50 normoxia/IC50 anoxia): 22.7 (4.2) | IC50 [2, 10]: 68.2 µM | IC50 [2, 11]: > 1500 µM | Average of HCR (SD) ([3]; HCR=IC50 normoxia/IC50 anoxia): 96.3 (26.2) | IC50 ([3]; DMS-114, anoxia (<0.01% O2), read-out: IC50 Average for Cpd.11Ms ANX (SD)): 6.2 µM | IC50 ([3]; DMS-114, normoxia (21% O2), read-out: IC50 Average for Cpd.11Ms NRX (SD)): 564 µM | Average of HCR (SD) ([4]; HCR=IC50 normoxia/IC50 anoxia): 28.8 (8.3) | IC50 [4, 10]: 53.1 µM | IC50 [4, 11]: 1450 µM | Average of HCR (SD) ([5]; HCR=IC50 normoxia/IC50 anoxia): 10.4 (3.0) | IC50 [5, 10]: 121 µM | IC50 [5, 11]: 1250 µM | Average of HCR (SD) ([6]; HCR=IC50 normoxia/IC50 anoxia): 28.2 (5.4) | IC50 [6, 10]: 45.1 µM | IC50 [6, 11]: 1250 µM | Average of HCR (SD) ([7]; HCR=IC50 normoxia/IC50 anoxia): 52.6 (36.4) | IC50 [7, 10]: 28.7 µM | IC50 [7, 11]: 1140 µM | Average of HCR (SD) ([8]; HCR=IC50 normoxia/IC50 anoxia): 24.0 (1.0) | IC50 [8, 10]: 43.6 µM | IC50 [8, 11]: 1040 µM | solubility [9]: ≥ 100 mg/mL
